Where two headings read alike, the source gives them in different places. Residues, ends and D or L forms follow the SMILES beside them. No end group written: not given here.
What was measured:
purified PR/8 virus = test system: purified PR/8 virus; design: species or system influenza virus A/PuertoRico/8/34 (PR/8, H1N1)
MDCK cells = conditions: 5-75 μM peptide, 24 hours, in words
cRBCs = conditions: for effect on cRBC membrane integrity: at any concentration (1-30 μM), in words
in vitro = conditions: dog, MDCK cells
[1] = 10 μM peptide, 64 HA units of purified A/PR/8/34, Yes/No
[2] = 10 μM peptide, mock treated virus (64 HAU) = 100% hemagglutination
[3] = 0.1-10 μM peptide, 64 HA units purified PR/8, estimated from dose response curves (Table 3)

Compound	HA inhibition (purified A/PR/8/34)	% inhibition (purified A/PR/8/34; 10 μM)	other results
O=C(CCCCCCC(=O)ON1C(=O)CCC1=O)ON1C(=O)CCC1=O [DSS, disuccinimidyl suberate, reference compound]	–	–	virion aggregation by electron microscopy (purified PR/8 virus): large aggregates
N=C(N)NCCC[C@H](NC(=O)[C@@H](N)CCCNC(=N)N)C(=O)N[C@@H](CCCCN)C(=O)N[C@@H](CCCCN)C(=O)O [SEQ. ID. NO: 17, RRKK] (H-RRKK-OH; N-terminus and C-terminus assumed)	No	0%	antiviral activity (purified A/PR/8/34): no antiviral activity
EEDDLAVLLALLA [SEQ ID NO: 54, EEDDLAVLLALLA]	–	0%	–
KKLAVLLALLA [SEQ ID NO: 53, KKLAVLLALLA]	–	0%	–
KLAVLLALLA [SEQ ID NO: 52, KLAVLLALLA]	–	25%	–
RKAVLLALLA [SEQ ID NO: 51, RKAVLLALLA]	–	50%	viral hemagglutination activity (FIG. 7) (purified A/PR/8/34): detected to a lesser extent
RKKLAVLLALLA [SEQ ID NO: 50, RKKLAVLLALLA]	–	75%	EC50 (purified A/PR/8/34): 8000 nM; viral hemagglutination activity (FIG. 7) (purified A/PR/8/34): detected to a lesser extent
RRKKA [SEQ. ID. NO: 16, RRKKA]	No	0%	–
RRKKAA [SEQ. ID. NO: 15, RRKKAA]	No	0%	–
RRKKAAAAAAAAA [SEQ ID NO: 49, RRKKAAAAAAAAA]	–	87.5%	EC50 (purified A/PR/8/34): ~7000 nM; viral hemagglutination activity (FIG. 7) (purified A/PR/8/34): detected to a lesser extent
RRKKAALLVLAALAVLA [SEQ. ID. NO: 30, RRKKAALLVLAALAVLA]	No	0%	–
RRKKAAV [SEQ. ID. NO: 14, RRKKAAV]	No	0%	–
RRKKAAVA [SEQ. ID. NO: 13, RRKKAAVA]	No	0%	–
RRKKAAVAL [SEQ. ID. NO: 12, RRKKAAVAL]	No	0%	–
RRKKAAVALL [SEQ. ID. NO: 11, RRKKAAVALL]	No	0%	–
RRKKAAVALLAVLLALLA [SEQ. ID. NO: 43, RRKKAAVALLAVLLALLA]	–	–	HA inhibition (purified A/PR/8/34; [1]): Yes; % inhibition (purified A/PR/8/34; [2]): 95±2%; EC50 (purified A/PR/8/34; [3]): 1600 ± 1200 nM
RRKKAAVALLP [SEQ. ID. NO: 10, RRKKAAVALLP]	No	4 ± 8%	–
RRKKAAVALLPA [SEQ. ID. NO: 9, RRKKAAVALLPA]	No	0%	–
RRKKAAVALLPAV [SEQ. ID. NO: 8, RRKKAAVALLPAV]	No	0%	–
RRKKAAVALLPAVL [SEQ. ID. NO: 7, RRKKAAVALLPAVL]	No	0%	–
RRKKAAVALLPAVLL [SEQ. ID. NO: 6, RRKKAAVALLPAVLL]	No	0%	–
RRKKAAVALLPAVLLA [SEQ. ID. NO: 5, RRKKAAVALLPAVLLA]	Yes	96 ± 3%	EC50 (purified A/PR/8/34): 2800 ± 1100 nM

Compound	HA inhibition (purified A/PR/8/34)	% inhibition (purified A/PR/8/34; 10 μM)	other results
RRKKAAVALLPAVLLAL [SEQ. ID. NO: 4, RRKKAAVALLPAVLLAL]	Yes	89 ± 3%	EC50 (purified A/PR/8/34): 3800 ± 1900 nM
RRKKAAVALLPAVLLALL [SEQ. ID. NO: 3, RRKKAAVALLPAVLLALL]	–	–	HA inhibition (purified A/PR/8/34; [1]): Yes; % inhibition (purified A/PR/8/34; [2]): 95 ± 2%; EC50 (purified A/PR/8/34; [3]): 600 ± 300 nM
RRKKAAVALLPAVLLALLA [SEQ. ID. NO: 2, RRKKAAVALLPAVLLALLA]	–	–	HA inhibition (purified A/PR/8/34; [1]): Yes; % inhibition (purified A/PR/8/34; [2]): 94 ± 2%; EC50 (purified A/PR/8/34; [3]): 500 ± 300 nM
RRKKAAVALLPAVLLALLAP [EB, reference compound]	–	–	% inhibition (purified A/PR/8/34; [2]): 95 ± 2%; % inhibition (purified A/PR/8/34; 10 μM peptide, normalized to EB-treated (10 μM EB) virus (64 HAU) = 100% inhibition (Table 4)): 100%; EC50 (purified A/PR/8/34; [3]): 2600 nM; EC50 (purified A/PR/8/34; Example 6, Table 4): 2000 nM; toxicity against MDCK cells (MDCK cells): limited toxicity; effect on cRBC membrane integrity (cRBCs): no effect
RRKKALLAP [SEQ. ID. NO: 25, RRKKALLAP]	No	0%	–
RRKKALLPAVLLALLAP [SEQ. ID. NO: 20, RRKKALLPAVLLALLAP]	Yes	94 ± 3%	EC50 (purified A/PR/8/34): 700 ± 300 nM
RRKKAP [SEQ. ID. NO: 28, RRKKAP]	No	0%	–
RRKKAVALLPAVLLALLAP [SEQ. ID. NO: 18, RRKKAVALLPAVLLALLAP]	–	–	HA inhibition (purified A/PR/8/34; [1]): Yes; % inhibition (purified A/PR/8/34; [2]): 94 ± 6%; EC50 (purified A/PR/8/34; [3]): 800 ± 300 nM
RRKKLAALPLVLAAPLAVLA [EBX, reference compound]	–	0%	effect on cRBC membrane integrity (cRBCs): no effect
RRKKLAP [SEQ. ID. NO: 27, RRKKLAP]	No	0%	–
RRKKLAVAAALLA [SEQ ID NO: 55, RRKKLAVAAALLA]	–	0%	–
RRKKLAVLLAAAA [SEQ ID NO: 56, RRKKLAVLLAAAA]	–	0%	–
RRKKLAVLLALLA [SEQ. ID. NO: 45, RRKKLAVLLALLA]	Yes	–	virion aggregation by electron microscopy (purified PR/8 virus): large aggregates; EC50 (purified A/PR/8/34): 3000 nM
RRKKLLALLAP [SEQ. ID. NO: 24, RRKKLLALLAP]	No	0%	–
RRKKLLAP [SEQ. ID. NO: 26, RRKKLLAP]	No	0%	–
RRKKLLAVLLALLA [SEQ ID NO: 44, RRKKLLAVLLALLA]	Yes	95±2%	EC50 (purified A/PR/8/34): 3000 nM
RRKKLLPAVLLALLAP [SEQ. ID. NO: 21, RRKKLLPAVLLALLAP]	Yes	94 ± 4%	EC50 (purified A/PR/8/34): 800 ± 300 nM
RRKKLPAVLLALLAP [SEQ. ID. NO: 22, RRKKLPAVLLALLAP]	Yes	–	viral hemagglutination activity (FIG. 7) (purified A/PR/8/34): the same as that for the EB peptide
RRKKP [SEQ. ID. NO: 29, RRKKP]	No	0%	–
RRKKVALLAVLLALLA [SEQ. ID. NO: 32, RRKKVALLAVLLALLA]	–	94 ± 4%	EC50 (purified A/PR/8/34): 500 ± 500 nM; toxicity against MDCK cells (MDCK cells): significant toxicity; lysis (hemoglobin release) compared to SDS treated control (cRBCs; 10 μM peptide): 71%; lysis (hemoglobin release) compared to SDS treated control (cRBCs; 30 μM peptide): 100%; concentration inducing hemoglobin release (cRBCs; 0.5% cRBC, 1 hour at 37° C.): exceeding 5 μM; viability at 24 h, 75 µM (in vitro): 20%
RRKKVALLPAVLLALLAP [SEQ. ID. NO: 19, RRKKVALLPAVLLALLAP]	–	–	HA inhibition (purified A/PR/8/34; [1]): Yes; % inhibition (purified A/PR/8/34; [2]): 94 ± 4%; EC50 (purified A/PR/8/34; [3]): 500 ± 400 nM
RRKKVLLALLAP [SEQ. ID. NO: 23, RRKKVLLALLAP]	Yes	90 ± 4%	EC50 (purified A/PR/8/34): 4000 ± 800 nM
